The values that follow come from patent US7495024B2, “Phenylalkyl N-hydroxyureas for combating atherosclerotic plaque” (VIA Pharmaceuticals, Inc., priority 2006, dated 2009).

Experiment [1] has as its system patients suffering from Acute Coronary Syndrome (ACS). Put plainly: Randomized, double blind, placebo-controlled study in patients with Acute Coronary Syndrome: biomarkers and MDCT (Example 3). It counts as in vivo, human. Conditions: 25, 50 or 100 mg per day oral. Here is the method:
In this study the plaque levels were determined by use of Multidetector (64 slice coronary) Computerized Tomography (MDCT) scan indicative of such plaque in male and female patients suffering from Acute Coronary Syndrome (ACS). The efficacy of this treatment in reducing the effects of cardiovascular disease was determined by the use of biomarkers for this disease. […] At the end of the twenty-four week period the plaque in the patients is analyzed using the Multidetector (64 slice coronary) Computerized Tomography (MDCT) scan. […] Thus, the groups take the following matching capsules at each daily administration of the study medication: • Placebo: two placebo capsules • 25 mg dose: one placebo capsule plus one 25 mg capsule • 50 mg dose: 1 placebo capsule plus one 50 mg capsule • 100 mg dose: two 50 mg capsules The following baseline assessments in each of the patients are made prior to the study: history and complete physical examination; focused physical exam (for signs of bleeding disorder); 12-Lead ECG; measurement of inflammatory biomarkers (LTB4 (ex vivo) measured at trough; LTE4 urine; hsCRP; MPO; MCP1 (CCL2); M-CSF (CSF-1); MIP-2 (Cxcl2); osteopontin (Spp1)); hematology; chemistries; urinalysis; serum pregnancy test for women of childbearing potential; and 64-slice coronary MDCT imaging with contrast. […]

Experiment [2] relates to patients with carotid stenosis undergoing elective carotid endarterectomy. Put plainly: Randomized, double blind, placebo-controlled study in patients with carotid stenosis undergoing carotid endarterectomy (Example 4). Format: in vivo, human. Conditions: 100 mg daily oral. Here is the method: In this randomized, double blind, placebo-controlled study, groups of 40 clinically stable patients between the age of 30 and 80 years with carotid stenosis undergoing elective carotid endarterectomy are treated by orally administering 100 mg of Compound X or placebo. A total of 80 patients are enrolled. Baseline assessments are performed at the start of treatment and these baseline results are compared with repeat assessments during various follow-up periods of treatment. The treatment is conducted for at least twelve weeks at which time these baseline assessments are performed and compared. […]
Plaque samples are obtained from patients following carotid endarterectomy surgery and the samples are analyzed to determine the level of plaque tissue inflammation. […]
The co-primary efficacy variables are: the change from baseline in ex vivo plaque LTB4 synthesis in whole blood and in ex vivo plaque LTB4 concentration after 12 weeks of administration of study medication. […] The significance of the difference between the groups with respect to the ex vivo plaque LTB4 concentrations is assessed by a t-test. […]
The secondary outcome measures of percent macrophage sectional area and number of T lymphocytes in plaque are analyzed using t-tests at the 0.05 alpha level (two sided). […]

On to `CC(C#Cc1ccc(Cc2ccc(F)cc2)s1)N(O)C(N)=O` (stereo not shown) [compound X, N-[3-[5-[(4-fluorophenyl)methyl]-2-thienyl]-1-methyl-2-propynyl]-N-hydroxyurea], for which, in experiment [1] (12 weeks of dosing), the “levels of inflammatory biomarkers for cardiovascular disease, percentage of patients vs placebo group” value is reported as “decrease in the levels of inflammatory biomarkers”. For the same compound, in experiment [1] (24 weeks of dosing), the “density and/or plaque volume of coronary noncalcified plaque index lesions by 64-slice MDCT, percentage of patients vs placebo group” value is listed as “a change in the density and/or plaque volume”. The “number of ischemic lesions after carotid endarterectomy by brain MRI using DWI, vs placebo group” value in experiment [2] (12 weeks) is on record as “reduction in the number of ischemic lesions”. In addition, the “level of biomarkers and plaque tissue inflammation, percentage of patients vs placebo group” value in experiment [2] (12 weeks of dosing) was “reduction in the level of biomarkers and plaque tissue inflammation”.
